Read-outs that look alike come from different tables or passages of the source.
Experiments:
HepG2 = system: HepG2; set-up: method as in Albrecht 2019; details: In vitro Assay; ref Albrecht 2019; cited from earlier work
PHH [1] = details: cited from earlier work
HepG2 cells [2] = details: cited from earlier work
HepaRG spheroids = assay: Combined HCI (HCS) and cellular ATP 3D assay in HepaRG spheroids; details: for AC50 / minimal effective concentration: Homo sapiens
[3] = system: primary human hepatocytes, NIH3T3 fibroblasts, BSEP, CYP3A4; details: cited from earlier work
[4] = in vivo; cited from earlier work
[5] = read-out: Human plasma Cmax; total plasma Cmax.tot, median of 9 literature references; cited from earlier work
PHH spheroids = details: cited from earlier work
hu-MPCC = details: In vitro Assay; ref Khetani 2012; cited from earlier work
hLiMTs [6] = assay: Combined HCI (HCS) and cellular ATP 3D assay in hLiMTs; details: for AC50 / minimal effective concentration: Homo sapiens
[7] = system: THLE-Null and THLE-3A4 cells; details: In vitro Assay; ref Gustafsson 2014; cited from earlier work
[8] = in vivo; cited from earlier work; remark: listed apart in the source
hLiMTs [9] = details: cited from earlier work
[10] = in vivo; cited from earlier work; remark: listed apart in the source
HepG2 cells [11] = details: cited from earlier work; remark: listed apart in the source
PHH 3D spheroids = system: PHH 3D spheroids; set-up: method as in Bell et al. 2018; details: 14-day exposure, three donors, ref Bell et al. 2018; cited from earlier work
[12] = system: THLE or HepG2 cells, isolated mitochondria, BSEP; details: cited from earlier work
PHH [13] = details: In vitro Assay; ref Albrecht 2019; cited from earlier work
[14] = system: isolated mouse liver mitochondria; details: In vitro Assay; ref Porceddu 2012; cited from earlier work
HepG2 cells [15] = details: cited from earlier work; remark: listed apart in the source
[16] = Plasma free fraction (fu) and unbound Cmax (Cmax,u); type: in vitro ADME, human; details: unbound plasma Cmax
Procedure: The prediction of DILI severity was evaluated further using the 3D combined HCI assays using plasma-free fraction. The majority of fu values were obtained from literature, when unavailable in-house prediction was utilised. Unbound plasma Cmax concentrations (Cmax,u) were derived by multiplying total plasma Cmax with the corresponding free fraction (fu) for each compound.

RMPCC's = details: In vitro Assay; ref Khetani 2012; cited from earlier work
human hepatocytes = details: cited from earlier work
[17] = plasma free fraction; cited from earlier work
[18] = In vitro Assay, ref Proctor 2017
[19] = Microtissue model structural based (HCI), combined HCS and ATP, MEC < 25 × Cmax.tot cut-off
[20] = In vitro Assay, ref Schadt 2015

For `O=C(O)Cc1ccccc1Nc1c(Cl)cccc1Cl` [diclofenac], the “Cytotoxicity HepG2 48 hrs” value (HepG2) is given as “+VE”, the “PHH/100uM, Proctor (2017)” value (PHH [1]; 2D PHH, ATP, IC50 threshold 100 µM, ref Proctor et al. 2017) is given as “-VE” and the “PHH ATP <100uM” value (PHH [1]; [18]) is given as “-VE”. For the same compound, the “Structural based (HCI)” value (HepG2 cells [2]; In vitro Assay, ref Persson 2013) was “-VE”, the Cluser analysis (HepG2 cells [2]) was “-VE” and the “DILI in vitro assay prediction, Persson (2013)” value (HepG2 cells [2]) was “-VE”. The “HepaRG <25x Avg Cmax ATP” value (HepaRG spheroids; HepaRG, ATP endpoint, cut-off <25x Avg Cmax) was “+ve”, the “HepaRG <100x Avg Cmaxu ATP” value (HepaRG spheroids; HepaRG, ATP endpoint, cut-off <100x Avg Cmaxu) was “-ve” and the “HepaRG <25x Avg Cmax HCS” value (HepaRG spheroids; HepaRG, HCS endpoints, cut-off <25x Avg Cmax) was “+ve”. The “HepaRG <100x Avg Cmaxu HCS” value (HepaRG spheroids; HepaRG, HCS endpoints, cut-off <100x Avg Cmaxu) was “-ve”, the “HepaRG <25x Avg Cmax All” value (HepaRG spheroids; HepaRG, all endpoints (ATP and HCS), cut-off <25x Avg Cmax) was “+ve” and the “HepaRG Cmax max All” value (HepaRG spheroids; HepaRG, all endpoints, Cmax max used) was “+ve”. For the same compound, the “HepaRG Cmax min All” value (HepaRG spheroids; HepaRG, all endpoints, Cmax min used) was “+ve”, the “HepaRG <10 uM All” value (HepaRG spheroids; HepaRG, all endpoints, cut-off <10 uM) was “-ve” and the “HepaRG <100x Avg Cmaxu All” value (HepaRG spheroids; HepaRG, all endpoints, cut-off <100x Avg Cmaxu) was “-ve”. For the same compound, the AC50 (HepaRG spheroids; HepaRG, read-out: ATP endpoint AC50) was 78 µM, the minimal effective concentration (HepaRG spheroids; HepaRG, read-out: ATP endpoint MEC) was 38.2 µM and the AC50 (HepaRG spheroids; HepaRG, read-out: HCS endpoint AC50) was 98.6 µM. For the same compound, the minimal effective concentration (HepaRG spheroids; HepaRG, read-out: HCS endpoint MEC) was 42.9 µM, the “DILI prediction HepaRG spheroids (HCS-MEC)” value (HepaRG spheroids; [19]) was “+VE (MEC < 25 × Cmax.tot cut-off)” and the “DILI in vitro assay prediction, Schadt (2015)” value ([3]; BSEP & Metabolism based, ref Schadt et al. 2015) was “+VE”. The “Cellular toxicity (3T3 cells)” value [3, 20] was “-VE”, the “Combined Assay” value [3, 20] was “+VE” and the “GSH adduct HML” value [3, 20] was “+VE”. The Hepatocyte cellular toxicity [3, 20] was “-VE”, the “MitoTox 3T3” value [3, 20] was “-VE” and the “TDI CYP3A4” value [3, 20] was “-VE”. For the same compound, the hBSEP inhibition [3, 20] was “-VE”, the “Assigned DILI category” value [4] was 3 and the “In vivo DILI” value [4] was “+VE”. The Cmax [5] was 10.1 µM, the “hLiMTs ATP <20 x Cmax” value (PHH spheroids; In vitro Assay, ref Vorrink 2018) was “+VE (IC20 < 20 × Cmax.tot cut-off)” and the “DILI in vitro assay prediction, Vorrink (2018)” value (PHH spheroids) was “+VE (key: +VE: IC20 < 20 × Cmax.tot cut-off)”. The “HMPCC's” value (hu-MPCC) was “+VE”, the AC50 (hLiMTs [6]; read-out: ATP endpoint AC50) was 62.1 µM and the minimal effective concentration (hLiMTs [6]; read-out: ATP endpoint MEC) was 17.2 µM. The AC50 (hLiMTs [6]; read-out: HCS endpoint AC50) was 293 µM, the minimal effective concentration (hLiMTs [6]; read-out: HCS endpoint MEC) was 45 µM and the “DILI prediction hLiMTs (HCS-MEC)” value (hLiMTs [6]; [19]) was “+VE (MEC < 25 × Cmax.tot cut-off)”. For the same compound, the “hLiMTs <25x Avg Cmax ATP” value (hLiMTs [6]; hLiMTs, ATP endpoint, cut-off <25x Avg Cmax) was “+ve”, the “hLiMTs <100x Avg Cmaxu ATP” value (hLiMTs [6]; hLiMTs, ATP endpoint, cut-off <100x Avg Cmaxu) was “-ve” and the “hLiMTs <25x Avg Cmax HCS” value (hLiMTs [6]; hLiMTs, HCS endpoints, cut-off <25x Avg Cmax) was “+ve”. For the same compound, the “hLiMTs <100x Avg Cmaxu HCS” value (hLiMTs [6]; hLiMTs, HCS endpoints, cut-off <100x Avg Cmaxu) was “-ve”, the “hLiMTs <25x Avg Cmax All” value (hLiMTs [6]; hLiMTs, all endpoints (ATP and HCS), cut-off <25x Avg Cmax) was “+ve” and the “hLiMTs Cmax max All” value (hLiMTs [6]; hLiMTs, all endpoints, Cmax max used) was “+ve”. The “hLiMTs Cmax min All” value (hLiMTs [6]; hLiMTs, all endpoints, Cmax min used) was “+ve”, the “hLiMTs <10 uM All” value (hLiMTs [6]; hLiMTs, all endpoints, cut-off <10 uM) was “-ve” and the “hLiMTs <100x Avg Cmaxu All” value (hLiMTs [6]; hLiMTs, all endpoints, cut-off <100x Avg Cmaxu) was “-ve”. The THLE-Null [7] was “+VE”, the “DILI +VE (5-8), DILI -VE (-4)” value [8] was “+VE” and the “DILI severity category (Chen et al. [2016])” value [8] was “Most”. For the same compound, the “hLiMTs ATP <100uM” value (hLiMTs [9]; [18]) was “+VE (IC50 threshold of 100 µM)”, the “hLiMTs/100uM, Proctor (2017)” value (hLiMTs [9]; hLiMTs, ATP, IC50 threshold 100 µM, ref Proctor et al. 2017) was “+VE (IC50 threshold of 100 µM)” and the “DILI Score (FDA) (1-8)” value [10] was 7. For the same compound, the “Structural based (HCI)” value (HepG2 cells [11]; In vitro Assay, ref Tolosa 2012) was “+VE”, the “DILI in vitro assay prediction, Tolosa (2012)” value (HepG2 cells [11]) was “+VE” and the “detection at 10 × Cmax.tot cut-off” value (PHH 3D spheroids) was “only detected by one of three donors”. The “Ro2 Hybrid HRM Score” value [12] was “+VE”, the “Cytotoxicity PHH 48 hrs” value (PHH [13]) was “+VE” and the “in vitro data EC2<=1x Cmax” value [14] was “+VE”. For the same compound, the “Structural based (HCI)” value (HepG2 cells [15]; In vitro Assay, ref O'Brien 2006) was “+VE”, the “DILI in vitro assay prediction, O'Brien (2006)” value (HepG2 cells [15]) was “+VE (key: +VE: lowest HCI endpoint IC50 (or in the absence of dose–response < 100 µM) < 30 × total human plasma exposure levels (Cmax.tot))” and the “Human plasma Cmax,u” value [16] was 0.101 µM. For the same compound, the “RMPCC's” value (RMPCC's) was “+VE”, the “DILI in vitro assay prediction, Xu (2008)” value (human hepatocytes) was “+VE” and the fu [17] was 0.010.

— article PMC7395068, “The evolution of strategies to minimise the risk of human drug-induced liver injury (DILI) in drug discovery and development” (Archives of Toxicology, 2020)
